Results reported in patent US20230339952A1, “MACROCYCLIC HETEROCYCLES AND USES THEREOF” (Kumquat Biosciences Inc., priority 2022, published 2023).
Read-outs that look alike come from different tables or passages of the source.

Experiments:
SOS1 = SOS1 (Homo sapiens (Human), UniProt Q07889); assay: Ras-SOS interaction assay (HTRF), K-Ras G13D utilized; type: binding; settings: K-Ras G13D
Source text: For example, the equilibrium interaction of human SOS1 (hSOS1) with human wildtype Kras or K-Ras mutant (e.g., hK-Ras G12C mutant, or hK-Ras G12C) can be assessed as a proxy or an indication for a subject compound's ability to inhibit SOS. Detection of such interaction is achieved by measuring homogenous time-resolved fluorescence resonance energy transfer (HTRF) from (i) a fluorescence resonance energy transfer (FRET) donor (e.g., antiGST-Europium) that is bound to GST-tagged K-Ras G12C to (ii) a FRET acceptor (e.g., anti-6His-XL665) bound to a His-tagged hSOS1.
A Ras working solution is prepared in assay buffer containing typically 10 nM of the protein construct (e.g., GST-tagged hK-Ras G12C) and 2 nM of the FRET donor (e.g., antiGST-Eu(K) from Cisbio, France). A SOS1 working solution is prepared in assay buffer containing typically 10 nM of the protein construct (e.g., His-hSOS1) and 10 nM of the FRET acceptor (e.g., anti-6His-XL665 from Cisbio, France). An inhibitor control solution is prepared in assay buffer containing 10 nM of the FRET acceptor without the SOS1 protein.
A fixed reaction mixture with or without test compound is transferred into a 384-well plate. Ras working solution is added to all wells of the test plate. SOS1 working solution is added to all wells except for those that are subsequently filled with the inhibitor control solution. […] The ratiometric data (i.e., emission 2 divided by emission 1) is used to calculate IC50 values against SOS1 using GraphPad Prism (GraphPad software).

[1] = system: NCI-H1975 (ATCC CRL-5908) cell line comprising an EGFR T790M L858R double mutation; assay: EGFR-SOS cellular inhibition assay (CellTiter-Glo cell proliferation); type: cell-based; settings: Homo sapiens, 120 h; NCI-H1975 cell proliferation, approximately 5 days; read-out: H1975 IC50
Procedure: A CellTiter-Glo (CTG) luminescent based assay (Promega) is used to assess growth of the cells, as a measurement of the ability of the compounds herein to inhibit EGFR signaling in the cells. […] The day after plating, cells are treated with a dilution series (e.g., a 9 point 3-fold dilution series) of the compounds herein (e.g., approximately 125 μL final volume per well).

Chain of SOS1 (Q07889 564-1049): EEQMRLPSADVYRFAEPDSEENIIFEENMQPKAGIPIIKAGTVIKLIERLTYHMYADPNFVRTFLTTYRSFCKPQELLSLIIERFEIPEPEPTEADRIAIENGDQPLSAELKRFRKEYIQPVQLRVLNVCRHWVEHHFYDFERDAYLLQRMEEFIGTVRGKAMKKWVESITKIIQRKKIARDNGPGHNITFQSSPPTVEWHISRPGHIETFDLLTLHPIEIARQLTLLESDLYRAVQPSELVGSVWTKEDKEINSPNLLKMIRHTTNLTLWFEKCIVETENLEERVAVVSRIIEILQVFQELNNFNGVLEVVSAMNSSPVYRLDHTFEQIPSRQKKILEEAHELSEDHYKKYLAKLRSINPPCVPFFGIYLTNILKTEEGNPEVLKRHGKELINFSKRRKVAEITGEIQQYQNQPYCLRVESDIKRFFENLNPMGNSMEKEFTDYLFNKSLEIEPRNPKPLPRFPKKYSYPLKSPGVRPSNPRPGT

Row | Structure (SMILES) | IC50 (SOS1; read-out: SOS1 IC50) [nM] | IC50 [1] [nM] | IC50 (SOS1; read-out: IC50 value against SOS1) [nM]
1 | C[C@H]1Nc2ncnc3c2cc(C2CCS(=O)(=O)CC2)c(=O)n3CC(=O)NCCCCN2CCC(CC2)C(F)(F)c2cccc1c2 [Compound 60, (4R)-6^6-(1,1-dioxidotetrahydro-2H-thiopyran-4-yl)-2,2-difluoro-4-methyl-6^7,6^8-dihydro-5,9-diaza-6(4,8)-pyrido[2,3-d]pyrimidina-1(4,1)-piperidina-3(1,3)-benzenacyclotridecaphane-6^7,8-dione] | < 100 | < 1000 | 
2 | C[C@H]1Nc2ncnc3c2cc(C2CCS(=O)(=O)CC2)c(=O)n3CCCCCC(C)(C)CN2CCC(CC2)C(F)(F)c2cccc1c2 [Compound 55, (4R)-6^6-(1,1-dioxidotetrahydro-2H-thiopyran-4-yl)-2,2-difluoro-4,12,12-trimethyl-6^7,6^8-dihydro-5-aza-6(4,8)-pyrido[2,3-d]pyrimidina-1(4,1)-piperidina-3(1,3)-benzenacyclotridecaphan-6^7-one] | < 100 | < 1000 | 
3 | C[C@H]1Nc2ncnc3c2cc(C2CCS(=O)(=O)CC2)c(=O)n3CCCC(=O)NCCN2CCC(CC2)C(F)(F)c2cccc1c2 [Compound 30, (4R)-6^6-(1,1-dioxidotetrahydro-2H-thiopyran-4-yl)-2,2-difluoro-4-methyl-6^7,6^8-dihydro-5,11-diaza-6(4,8)-pyrido[2,3-d]pyrimidina-1(4,1)-piperidina-3(1,3)-benzenacyclotridecaphane-6^7,10-dione] | < 100 | < 1000 | 
4 | C[C@H]1Nc2ncnc3c2cc(C2(C#N)CC2)c(=O)n3CC(=O)N(C)CCCCN2CCC(CC2)C(F)(F)c2cccc1c2F [Compound 128, 1-((4R)-3^2,2,2-trifluoro-4,9-dimethyl-6^7,8-dioxo-6^7, 6^8-dihydro-5,9-diaza-6(4,8)-pyrido[2,3-d]pyrimidina-1(4,1)-piperidina-3(1,3)-benzenacyclotridecaphane-6^6-yl)cyclopropane-1-carbonitrile] | < 100 | < 1000 | 
5 | CC(C)N1CCN(c2cc3c4ncnc3n(c2=O)CCCCCCCN2CCC(CC2)C(F)(F)c2cccc(c2)[C@@H](C)N4)CC1 [Compound 123, (4R)-2,2-difluoro-6^6-(4-isopropylpiperazin-1-yl)-4-methyl-6^7,6^8-dihydro-5-aza-6(4,8)-pyrido[2,3-d]pyrimidina-1(4,1)-piperidina-3(1,3)-benzenacyclotridecaphan-6^7-one] | < 100 | < 1000 | 
6 | Cc1nc2c3cc(C4(C#N)CC4)c(=O)n(c3n1)CCCC/C=C\CN1CCC(CC1)C(F)(F)c1cccc(c1F)[C@@H](C)N2 [Compound 168, 1-((4R,Z)-3^2,2,2-trifluoro-6^2,4-dimethyl-6^7-oxo-6^7,6^8-dihydro-5-aza-6(4,8)-pyrido[2,3-d]pyrimidina-1(4,1)-piperidina-3(1,3)-benzenacyclotridecaphan-11-en-6^6-yl)cyclopropane-1-carbonitrile] | < 100 | 1000 to 10000 | < 50
7 | Cc1nc2c3cc(C4CCS(=O)(=O)CC4)c(=O)n(c3n1)CCCC/C=C\CC(C)(O)C(F)(F)c1cccc(c1)[C@@H](C)N2 (stereo partly drawn) [Compound 12, (3R,Z)-1^6-(1,1-dioxidotetrahydro-2H-thiopyran-4-yl)-5,5-difluoro-6-hydroxy-1^2,3,6-trimethyl-1^7,1^8-dihydro-2-aza-1(4,8)-pyrido[2,3-d]pyrimidina-4(1,3)-benzenacyclotridecaphan-8-en-1^7-one] | 100 to 5000 | < 1000 | 
8 | C[C@H]1Nc2ncnc3c2cc(C2(C#N)CC2)c(=O)n3CCC/C=C/CN2CCC(CC2)CC(F)(F)c2cccc1c2F [Compound 89, 1-((3R,E)-4^2,5,5-trifluoro-3-methyl-1^7-oxo-1^7,1^8-dihydro-2-aza-1(4,8)-pyrido[2,3-d]pyrimidina-7(4,1)-piperidina-4(1,3)-benzenacyclotridecaphan-9-en-1^6-yl)cyclopropane-1-carbonitrile] | < 100 | < 1000 | 
9 | C[C@@H]1C(=O)NCCCCn2c(=O)c(C3(C#N)CC3)cc3c(ncnc32)N[C@H](C)c2cccc(c2)C(F)(F)C2CCN1CC2 [Compound 36, 1-((4R,13R)-2,2-difluoro-4,13-dimethyl-6^7,12-dioxo-6^7,6^8-dihydro-5,11-diaza-6(4,8)-pyrido[2,3-d]pyrimidina-1(4,1)-piperidina-3(1,3)-benzenacyclotridecaphane-6^6-yl)cyclopropane-1-carbonitrile] | < 100 | < 1000 | 
10 | C[C@H]1Nc2ncnc3c2cc(C2CCS(=O)(=O)CC2)c(=O)n3CCCCCC(C)(O)CN2CCC(CC2)C(F)(F)c2cccc1c2 (stereo partly drawn) [Compound 110, (4R)-6^6-(1,1-dioxidotetrahydro-2H-thiopyran-4-yl)-2,2-difluoro-12-hydroxy-4,12-dimethyl-6^7,6^8-dihydro-5-aza-6(4,8)-pyrido[2,3-d]pyrimidina-1(4,1)-piperidina-3(1,3)-benzenacyclotridecaphan-6^7-one] | < 100 | < 1000 | 
11 | C[C@H]1Nc2ncnc3c2cc(C2CCS(=O)(=O)CC2)c(=O)n3CCCCn2cc(nn2)CN2CCC(CC2)C(F)(F)c2cccc1c2F [Compound 108, (6R,Z)-8^6-(1,1-dioxidotetrahydro-2H-thiopyran-4-yl)-5^2,4,4-trifluoro-6-methyl-8^7,8^8-dihydro-11H-7-aza-8(4,8)-pyrido[2,3-d]pyrimidina-3(1,4)-piperidina-1(4,1)-triazola-5(1,3)-benzenacyclododecaphan-8^7-one] | < 100 | < 1000 | 
12 | CC1C/C=C\CCn2c(=O)c(C3CCS(=O)(=O)CC3)cc3c(ncnc32)N[C@H](C)c2cccc(c2F)C(F)(F)C2CCN(CC2)C1 (stereo partly drawn) [Compound 107, (4R,Z)-6^6-(1,1-dioxidotetrahydro-2H-thiopyran-4-yl)-3^2,2,2-trifluoro-4,12-dimethyl-6^7,6^8-dihydro-5-aza-6(4,8)-pyrido[2,3-d]pyrimidina-1(4,1)-piperidina-3(1,3)-benzenacyclotridecaphan-9-en-6^7-one] | < 100 | < 1000 | 
13 | CC1CC/C=C\CCn2c(=O)c(C3(C#N)CC3)cc3c(ncnc32)N[C@H](C)c2cccc(c2)C(F)(F)C2CCN1CC2 (stereo partly drawn) [Compound 100, 1-((4R,Z)-2,2-difluoro-4,13-dimethyl-6^7-oxo-6^7,6^8-dihydro-5-aza-6(4,8)-pyrido[2,3-d]pyrimidina-1(4,1)-piperidina-3(1,3)-benzenacyclotridecaphan-9-en-6^6-yl)cyclopropane-1-carbonitrile] |  | < 1000 | 
14 | Cc1nc2c3cc(C4CCS(=O)(=O)CC4)c(=O)n(c3n1)CCCCCCCN1CCC(CC1)C(F)(F)c1cccc(c1)[C@@H](C)N2 [Compound 7, (4R)-6^6-(1,1-dioxidotetrahydro-2H-thiopyran-4-yl)-2,2-difluoro-6^2,4-dimethyl-6^7,6^8-dihydro-5-aza-6(4,8)-pyrido[2,3-d]pyrimidina-1(4,1)-piperidina-3(1,3)-benzenacyclotridecaphan-6^7-one] | 100 to 5000 |  | 
15 | C[C@H]1Nc2nc(=O)n(c3c2cc(C2(C#N)CC2)c(=O)n3C)C/C=C\COCC(F)(F)c2cccc1c2F [Compound 66, 1-((1^3E,3R,9Z)-4^2,5,5-trifluoro-1^8,3-dimethyl-1^2,1^7-dioxo-1^1,1^2,1^7,1^8-tetrahydro-7-oxa-2-aza-1(4,1)-pyrido[2,3-d]pyrimidina-4(1,3)-benzenacycloundecaphan-9-en-1^6-yl)cyclopropane-1-carbonitrile] | 100 to 5000 |  | 
16 | C[C@H]1Nc2nc(=O)n(c3c2cc(C2(C#N)CC2)c(=O)n3C)CC/C=C\COCC(F)(F)c2cccc1c2F [Compound 102, 1-((1^3E,3R,9Z)-4^2,5,5-trifluoro-1^8,3-dimethyl-1^2,1^7-dioxo-1^1,1^2,1^7,1^8-tetrahydro-7-oxa-2-aza-1(4,1)-pyrido[2,3-d]pyrimidina-4(1,3)-benzenacyclododecaphan-9-en-1^6-yl)cyclopropane-1-carbonitrile] | 100 to 5000 |  | 
17 | COc1cc2nc(C)nc3c2cc1OCCOCCOCCOCCOCCNC(=O)CCCNCc1ccccc1C1=CC=C(S1)C(C)N3 (stereo not shown) [Compound 51, 5^7-methoxy-5^2,3-dimethyl-6,9,12,15,18-pentaoxa-4,21,26-triaza-5(4,6)-quinazolina-2(2,5)-thiophena-1(1,2)-benzenacycloheptacosaphan-22-one] | < 100 |  | 
18 | C[C@H]1Nc2nc(=O)n(c3c2cc(C2(C#N)CC2)c(=O)n3C)CCCCOCC(F)(F)c2cccc1c2F [Compound 37, 1-((3R,E)-4^2,5,5-trifluoro-1^8,3-dimethyl-1^2,1^7-dioxo-1^1,1^2,1^7,1^8-tetrahydro-7-oxa-2-aza-1(4,1)-pyrido[2,3-d]pyrimidina-4(1,3)-benzenacycloundecaphane-1^6-yl)cyclopropane-1-carbonitrile] | 100 to 5000 |  | 
